Laboratory results published in patent US11214547B2, “Crystalline Eltrombopag monoethanolamine salt form D” (F.I.S.—FABBRICA ITALIANA SINTETICI S.P.A., priority 2018, dated 2022).

Assays:
[1] = cited from earlier work
[2] = Relative thermodynamic solubility in water at RT by HPLC; type: physicochemical; settings: for Intensity test average: average of solubility tests #1 and #2, water; for Intensity test average / Solubility test #1 (area counts) / Solubility test #2 (area counts): RT; for Solubility test #1 (area counts) / Solubility test #2 (area counts): water, 24 h stirring, HPLC ETP peak area of saturated solution
Method: This suspension was stirred 24 h at RT in order to reach the equilibrium. Then, a sample was filtered and the resulting filtrate was analysed by HPLC by duplicate. The average peak area of ETP gave a relative value of the thermodynamic solubility of each form that can be compared with each other. The solids recovered after filtration were also analysed by XRPD to check that no crystalline phase transformation occurred during the slurring.
The following HPLC conditions were used to determine the relative solubility (due to their short analysis time and good response): • Column: C18 Zorbax Eclipse (XDB), 150×4.6 mm, 5 μm • Sample concentration: Saturated water solution of the ETP monoethanolamine salt • Mobile phase: ACN:MeOH:H2O (55:35:10) at pH=6.0+/−0.2 • Temperature: 27° C. • Flow rate: 1 mL/min • UV detector wavelength: 230 nm • Injection: 5 μL • Run time: 10 min
HPLC ETP peak area in each of the different forms analysed was measured in order to establish their relative solubility. The HPLC analyses were performed by duplicate for each ETP monoethanolamine salt.

[3] = Preliminary stability in water at RT (slurry, XRPD); type: physicochemical; settings: XRPD at 1, 3, 6 and 24 h
Method: A preliminary test stability study in water at RT of 4 ETP monoethanolamine salt Forms was performed in order to observed possible crystalline transitions. A sample of each crystalline form was slurried in water at RT and periodically analysed by XRPD (1, 3, 6 and 24 h) in order to detect possible crystalline transformation.

[4] = Crystalline stability of Form D under accelerated ICH guideline conditions (XRPD); type: physicochemical
Source text: […] […] This sample was periodically analysed by XRPD in order to observe possible crystalline transformation or amorphization. Moreover, a sample of ETP monoethanolamine salt Form D stored on a XRPD silicon holder was exposed in a climatic chamber. It is worth noting that these stability conditions are harsher than standard stability conditions due to the high surface of exposition of the solid stored on the XRPD silicon holder. The samples were periodically analysed by XRPD to observe possible crystalline transformation.

[5] = Hygroscopicity study by DVS (Dynamic Vapour Sorption); type: physicochemical; settings: 25° C.
Method: Hygroscopicity study was determined by DVS (Dynamic Vapour Sorption) with a Q5000 TA instrument. This is a gravimetric technique that measures how much water is absorbed or desorbed by a sample at different relative humidity (RH). At each RH, the sample mass must be allowed to reach gravimetric equilibrium (or surpassed time limit) before progressing to the next humidity level. Sorption and desorption isotherms were performed at 25° C. over a range of 0-95% RH. The samples gently milled were not previously dried but they were exposed to 0% RH until a stable weight was reached before starting the DVS cycle. This equilibration step allows possible adsorbed humidity to be eliminated.

Intensity test average [2]	Solubility test #1 (area counts) [2]	Solubility test #2 (area counts) [2]	crystalline stability slurried in water [3]	relative solubility in water ([2]; water at RT, ranking among the 4 forms)	time the crystalline form remains stable ([4]; climate chamber-75±5% RH, on XRPD sample holder)	hygroscopicity ([5]; 0-95% RH)	humidity adsorbed (water uptake) ([5]; at 95% RH)	Compound	thermally stable up to ([1]; at higher temperature endothermic reaction associated with degradation)	solubility in water [1]	crystalline transformation by XRPD ([4]; 14 weeks study period)
–	–	–	–	–	–	–	–	CC1=NN(c2ccc(C)c(C)c2)C(=O)/C1=N\Nc1cccc(-c2cccc(C(=O)O)c2)c1O [Eltrombopag olamine]	about 125 °C	sparingly soluble in water	–
2911	2722 area counts	3100 area counts	remained stable 24 h	–	–	–	–	CC1=NN(c2ccc(C)c(C)c2)C(=O)/C1=N\Nc1cccc(-c2cccc(C(=O)O)c2)c1O [Form D1]	–	–	–
8066	7930 area counts	8201 area counts	remained stable 24 h	most soluble form in water at RT	at least 14 weeks	not hygroscopic up to 85% RH	–	CC1=NN(c2ccc(C)c(C)c2)C(=O)/C1=N\Nc1cccc(-c2cccc(C(=O)O)c2)c1O [Form D]	–	–	polymorphic transition, hydrate formation or amorphization was not observed
2867	3068 area counts	2665 area counts	remained stable 24 h	–	–	–	0.6%	CC1=NN(c2ccc(C)c(C)c2)C(=O)/C1=N\Nc1cccc(-c2cccc(C(=O)O)c2)c1O.NCCO [Form H2]	–	–	–
